# Laboratory results from PubChem BioAssay AID1963962 (Molecular Pharmacology Branch, DTP, NCI, 2024).
# pIC50: −log10 of the molar value.
# Test system: 967376-340-R-J2-PDC multicell spheroid viability
# Experiment: Anticancer human tumor 967376-340-R-J2-PDC patient-derived colon adenocarcinoma cell line growth inhibition [PI3K]
# Conditions: for pIC50: curve of first compound; for viability, T/C: stronger effect = lower value
# Method in brief: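 Multi-cell spheroids combine tumor cells with HUVEC and human MSCs, treated with targeted agents alone or with inavolisib, alpelisib, duvelisib or copanlisib. Concentrations fall in half-log steps from at or near clinical Cmax, or from 10 microM where Cmax is unknown; viability read-out.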
# [1] = second compound 0.00316 µM, first compound 0.0316 µM
# [2] = second compound 0.00316 µM, first compound 0.1 µM
# [3] = second compound 0.00316 µM, first compound 0.316 µM
# [4] = second compound 0.00316 µM, first compound 1 µM
# [5] = second compound 0.00316 µM, first compound 3.16 µM
# [6] = second compound 0.00316 µM, first compound 10 µM
# [7] = second compound 0.01 µM, first compound 0.0316 µM
# [8] = second compound 0.01 µM, first compound 0.1 µM
# [9] = second compound 0.01 µM, first compound 0.316 µM
# [10] = second compound 0.01 µM, first compound 1 µM
# [11] = second compound 0.01 µM, first compound 3.16 µM
# [12] = second compound 0.01 µM, first compound 10 µM
# [13] = second compound 0.0316 µM, first compound 0.0316 µM
# [14] = second compound 0.0316 µM, first compound 0.1 µM
# [15] = second compound 0.0316 µM, first compound 0.316 µM
# [16] = second compound 0.0316 µM, first compound 1 µM
# [17] = second compound 0.0316 µM, first compound 3.16 µM
# [18] = second compound 0.0316 µM, first compound 10 µM
# [19] = second compound 0.1 µM, first compound 0.0316 µM
# [20] = second compound 0.1 µM, first compound 0.1 µM
# [21] = second compound 0.1 µM, first compound 0.316 µM
# [22] = second compound 0.1 µM, first compound 1 µM
# [23] = second compound 0.1 µM, first compound 3.16 µM
# [24] = second compound 0.1 µM, first compound 10 µM
# [25] = second compound 0.316 µM, first compound 0.0316 µM
# [26] = second compound 0.316 µM, first compound 0.1 µM
# [27] = second compound 0.316 µM, first compound 0.316 µM
# [28] = second compound 0.316 µM, first compound 1 µM
# [29] = second compound 0.316 µM, first compound 3.16 µM
# [30] = second compound 0.316 µM, first compound 10 µM
# [31] = second compound 1 µM, first compound 0.0316 µM
# [32] = second compound 1 µM, first compound 0.1 µM
# [33] = second compound 1 µM, first compound 0.316 µM
# [34] = second compound 1 µM, first compound 1 µM
# [35] = second compound 1 µM, first compound 3.16 µM
# [36] = second compound 1 µM, first compound 10 µM
# 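Also: spheroids exposed to agents for 7 days before read-out.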
# 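For viability, T/C in this document: luminescence used as surrogate of cell viability.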
smiles,measurement,setting,value
C=CC(=O)N1CCN(c2nc(=O)n(-c3c(C)ccnc3C(C)C)c3nc(-c4c(O)cccc4F)c(F)cc23)C(C)C1 (stereo not given) + COc1c(OCCCN2CCOCC2)ccc2c3n(c(=NC(=O)c4cnc(N)nc4)nc12)CCN3,pIC50,second compound 0.00316 µM,< 5.00
same,pIC50,second compound 0.01 µM,< 5.00
same,pIC50,second compound 0.0316 µM,< 5.00
same,pIC50,second compound 0.1 µM,< 5.00
same,pIC50,second compound 0.316 µM,> 7.50
same,pIC50,second compound 1 µM,> 7.50
same,"viability, T/C",[1],112%
same,"viability, T/C",[2],101%
same,"viability, T/C",[3],91.7%
same,"viability, T/C",[4],92.6%
same,"viability, T/C",[5],111%
same,"viability, T/C",[6],70.2%
same,"viability, T/C",[7],95.5%
same,"viability, T/C",[8],97.8%
same,"viability, T/C",[9],90.8%
same,"viability, T/C",[10],80.4%
same,"viability, T/C",[11],84.8%
same,"viability, T/C",[12],73.5%
same,"viability, T/C",[13],74%
same,"viability, T/C",[14],81.7%
same,"viability, T/C",[15],73.1%
same,"viability, T/C",[16],70.3%
same,"viability, T/C",[17],85.6%
same,"viability, T/C",[18],79.8%
same,"viability, T/C",[19],55.3%
same,"viability, T/C",[20],78.6%
same,"viability, T/C",[21],63.9%
same,"viability, T/C",[22],66%
same,"viability, T/C",[23],84%
same,"viability, T/C",[24],52%
same,"viability, T/C",[25],50.5%
same,"viability, T/C",[26],41%
same,"viability, T/C",[27],41.3%
same,"viability, T/C",[28],40.3%
same,"viability, T/C",[29],50.1%
same,"viability, T/C",[30],42.6%
same,"viability, T/C",[31],33.6%
same,"viability, T/C",[32],36%
same,"viability, T/C",[33],29.6%
same,"viability, T/C",[34],34.5%
same,"viability, T/C",[35],37.9%
same,"viability, T/C",[36],39.5%
CC(C)NCC(C(=O)N1CCN(c2ncnc3c2C(C)CC3O)CC1)c1ccc(Cl)cc1 (stereo not given) + COc1c(OCCCN2CCOCC2)ccc2c3n(c(=NC(=O)c4cnc(N)nc4)nc12)CCN3,pIC50,second compound 0.00316 µM,< 5.00
same,pIC50,second compound 0.01 µM,< 5.00
same,pIC50,second compound 0.0316 µM,< 5.00
same,pIC50,second compound 0.1 µM,< 5.00
same,pIC50,second compound 0.316 µM,> 7.50
same,pIC50,second compound 1 µM,> 7.50
same,"viability, T/C",[1],79.8%
same,"viability, T/C",[2],100%
same,"viability, T/C",[3],78.2%
same,"viability, T/C",[4],83.5%
same,"viability, T/C",[5],73%
same,"viability, T/C",[6],85.4%
same,"viability, T/C",[7],90.9%
same,"viability, T/C",[8],75.4%
same,"viability, T/C",[9],102%
same,"viability, T/C",[10],66.9%
same,"viability, T/C",[11],76%
same,"viability, T/C",[12],75.5%
same,"viability, T/C",[13],78.8%
same,"viability, T/C",[14],61.5%
same,"viability, T/C",[15],62.5%
same,"viability, T/C",[16],66.7%
same,"viability, T/C",[17],82.9%
same,"viability, T/C",[18],66.4%
same,"viability, T/C",[19],53.7%
same,"viability, T/C",[20],54.1%
same,"viability, T/C",[21],74.5%
same,"viability, T/C",[22],49%
same,"viability, T/C",[23],57.9%
same,"viability, T/C",[24],47.5%
same,"viability, T/C",[25],38.4%
same,"viability, T/C",[26],35.5%
same,"viability, T/C",[27],57.1%
same,"viability, T/C",[28],33.9%
same,"viability, T/C",[29],52.5%
same,"viability, T/C",[30],49.4%
same,"viability, T/C",[31],48.4%
same,"viability, T/C",[32],25.3%
same,"viability, T/C",[33],37.2%
same,"viability, T/C",[34],26.1%
same,"viability, T/C",[35],47.6%
same,"viability, T/C",[36],48.7%
CCN1CCN(Cc2ccc(Nc3ncc(F)c(-c4cc(F)c5nc(C)n(C(C)C)c5c4)n3)nc2)CC1 + COc1c(OCCCN2CCOCC2)ccc2c3n(c(=NC(=O)c4cnc(N)nc4)nc12)CCN3,pIC50,second compound 0.00316 µM,< 6.00
same,pIC50,second compound 0.01 µM,< 6.00
same,pIC50,second compound 0.0316 µM,6.11
same,pIC50,second compound 0.1 µM,7.60
same,pIC50,second compound 0.316 µM,> 8.50
same,pIC50,second compound 1 µM,> 8.50
same,"viability, T/C","second compound 0.00316 µM, first compound 0.00316 µM",85.1%
same,"viability, T/C","second compound 0.00316 µM, first compound 0.01 µM",95.7%
same,"viability, T/C",[1],87.6%
same,"viability, T/C",[2],83.5%
same,"viability, T/C",[3],79.7%
same,"viability, T/C",[4],70.8%
same,"viability, T/C","second compound 0.01 µM, first compound 0.00316 µM",85.3%
same,"viability, T/C","second compound 0.01 µM, first compound 0.01 µM",77.9%
same,"viability, T/C",[7],62.4%
same,"viability, T/C",[8],71.1%
same,"viability, T/C",[9],73.2%
same,"viability, T/C",[10],60.6%
same,"viability, T/C","second compound 0.0316 µM, first compound 0.00316 µM",68.6%
same,"viability, T/C","second compound 0.0316 µM, first compound 0.01 µM",68.4%
same,"viability, T/C",[13],71.4%
same,"viability, T/C",[14],52.3%
same,"viability, T/C",[15],63.6%
same,"viability, T/C",[16],46.5%
same,"viability, T/C","second compound 0.1 µM, first compound 0.00316 µM",66%
same,"viability, T/C","second compound 0.1 µM, first compound 0.01 µM",57.6%
same,"viability, T/C",[19],48.2%
same,"viability, T/C",[20],40.1%
same,"viability, T/C",[21],39.2%
same,"viability, T/C",[22],34.9%
same,"viability, T/C","second compound 0.316 µM, first compound 0.00316 µM",53.2%
same,"viability, T/C","second compound 0.316 µM, first compound 0.01 µM",34.8%
same,"viability, T/C",[25],43.4%
same,"viability, T/C",[26],43.3%
same,"viability, T/C",[27],42.4%
same,"viability, T/C",[28],29.6%
same,"viability, T/C","second compound 1 µM, first compound 0.00316 µM",42.2%
same,"viability, T/C","second compound 1 µM, first compound 0.01 µM",35.5%
same,"viability, T/C",[31],38.4%
same,"viability, T/C",[32],22.8%
same,"viability, T/C",[33],28.4%
same,"viability, T/C",[34],30.3%
Cn1ncc(Cl)c1-c1cc(C(=O)NC(CN)Cc2cccc(F)c2)sc1Cl (stereo not given) + COc1c(OCCCN2CCOCC2)ccc2c3n(c(=NC(=O)c4cnc(N)nc4)nc12)CCN3,pIC50,second compound 0.00316 µM,< 5.00
same,pIC50,second compound 0.01 µM,< 5.00
same,pIC50,second compound 0.0316 µM,5.30
same,pIC50,second compound 0.1 µM,< 5.00
same,pIC50,second compound 0.316 µM,6.83
same,pIC50,second compound 1 µM,> 7.50
same,"viability, T/C",[1],93.7%
same,"viability, T/C",[2],107%
same,"viability, T/C",[3],73.8%
same,"viability, T/C",[4],94.8%
same,"viability, T/C",[5],84.8%
same,"viability, T/C",[6],60.2%
same,"viability, T/C",[7],88.5%
same,"viability, T/C",[8],106%
same,"viability, T/C",[9],76.2%
same,"viability, T/C",[10],84.2%
same,"viability, T/C",[11],67.3%
same,"viability, T/C",[12],64.7%
same,"viability, T/C",[13],84.1%
same,"viability, T/C",[14],80.7%
same,"viability, T/C",[15],70.5%
same,"viability, T/C",[16],80.5%
same,"viability, T/C",[17],57.8%
same,"viability, T/C",[18],37.8%
same,"viability, T/C",[19],76.4%
same,"viability, T/C",[20],59.3%
same,"viability, T/C",[21],77.9%
same,"viability, T/C",[22],67.8%
same,"viability, T/C",[23],52.8%
same,"viability, T/C",[24],56.5%
same,"viability, T/C",[25],59.1%
same,"viability, T/C",[26],55.3%
same,"viability, T/C",[27],45.1%
same,"viability, T/C",[28],36%
same,"viability, T/C",[29],52.5%
same,"viability, T/C",[30],36.6%
same,"viability, T/C",[31],40.4%
same,"viability, T/C",[32],46.5%
same,"viability, T/C",[33],30.9%
same,"viability, T/C",[34],39.7%
same,"viability, T/C",[35],31.4%
same,"viability, T/C",[36],24.4%
Cn1nccc1Nc1nccc(-c2ccn(C(CO)c3ccc(Cl)c(F)c3)c(=O)c2)n1 (stereo not given) + COc1c(OCCCN2CCOCC2)ccc2c3n(c(=NC(=O)c4cnc(N)nc4)nc12)CCN3,pIC50,second compound 0.00316 µM,< 5.00
same,pIC50,second compound 0.01 µM,< 5.00
same,pIC50,second compound 0.0316 µM,< 5.00
same,pIC50,second compound 0.1 µM,< 5.00
same,pIC50,second compound 0.316 µM,7.19
same,pIC50,second compound 1 µM,> 7.50
same,"viability, T/C",[1],117%
same,"viability, T/C",[2],117%
same,"viability, T/C",[3],86.2%
same,"viability, T/C",[4],86.9%
same,"viability, T/C",[5],137%
same,"viability, T/C",[6],74.5%
same,"viability, T/C",[7],96.2%
same,"viability, T/C",[8],87.6%
same,"viability, T/C",[9],96.4%
same,"viability, T/C",[10],100%
same,"viability, T/C",[11],97.5%
same,"viability, T/C",[12],97.8%
same,"viability, T/C",[13],73.5%
same,"viability, T/C",[14],96.8%
same,"viability, T/C",[15],72.9%
same,"viability, T/C",[16],79.2%
same,"viability, T/C",[17],83.1%
same,"viability, T/C",[18],84.8%
same,"viability, T/C",[19],61.1%
same,"viability, T/C",[20],67%
same,"viability, T/C",[21],55.6%
same,"viability, T/C",[22],86.7%
same,"viability, T/C",[23],58.9%
same,"viability, T/C",[24],43.6%
same,"viability, T/C",[25],58.5%
same,"viability, T/C",[26],43%
same,"viability, T/C",[27],34.8%
same,"viability, T/C",[28],49.5%
same,"viability, T/C",[29],57.5%
same,"viability, T/C",[30],29.3%
same,"viability, T/C",[31],44.4%
same,"viability, T/C",[32],31%
same,"viability, T/C",[33],40.7%
same,"viability, T/C",[34],49.4%
same,"viability, T/C",[35],42.9%
same,"viability, T/C",[36],27.6%
